Test results from US20220144850A1, “INDOLO HEPTAMYL OXIME ANALOGUE AS PARP INHIBITOR” (Chia Tai Tianqing Pharmaceutical Group Co., Ltd., priority 2019, published 2022).

How the values were obtained:
[1] = test system: BRCA1-mutated MDA-MB-436 cells; assay: Anti-proliferation experiment on MDA-MB-436 CTG cells; format: cell-based, human; details: 7 days incubation, CellTiter-Glo
Experimental: Experimental Example 2: Anti-Proliferation Experiment on MDA-MB-436 CTG Cells
Experimental materials: test compounds; RPMI-1640 medium; fetal bovine serum; penicillin/streptomycin antibiotic; MDA-MB-436 cell line; Envision multi-marker analyzer (PerkinElmer).
MDA-MB-436 cells were seeded in a white 96-well plate by adding 80 μL of cell suspension (containing 3000 MDA-MB-436 cells) to each well. The cell plate was incubated in a CO2 incubator overnight.
(§1) Test compounds were serially 5-fold diluted to the 8th concentration with a multichannel pipette, i.e. from 2 mM to 26 nM, and a duplicate well experiment was performed. 78 μL of medium was added to a intermediate plate, 2 μL of each of serially diluted compounds was transferred to corresponding wells of the intermediate plate, and after mixing, the mixture was transferred to the cell plate at 20 μL per well. The cell plate was incubated in a CO2 incubator for 7 days. Another cell plate was provided for reading signal values on the day of compound addition and these signal values were used as Max values in data analysis. Promega CellTiter-Glo was added to this cell plate at 25 μL per well and the luminescence signals were stabilized by incubation for 10 min at room temperature. Readings were taken using a PerkinElmer Envision multi-marker analyzer.
(§2) Promega CellTiter-Glo was added to the cell plate at 25 μL per well and the luminescence signals were stabilized by incubation for 10 min at room temperature. Readings were taken using a PerkinElmer Envision multi-marker analyzer.
2. Data analysis: the original data was converted to inhibition using the equation (sample−Min)/(Max−Min)×100%, and the IC50 value was then curve fitted using four parameters (obtained from the “log(inhibitor) vs. response-variable slope” model in GraphPad Prism). Table 2 provides the inhibitory activity of the compounds disclosed herein against MDA-MB-436 cell proliferation.

[2] = molecular target: T1, PARP1 (Homo sapiens, UniProt P09874); assay: PARP-1 enzymatic experiment (HT Universal Chemiluminescent PARP Assay kit); format: biochemical; details: chemiluminescence
T1 construct: purchased TREVIGEN
Experimental: Experimental Example 1: PARP-1 Enzymatic Experiment
Experimental materials: test compounds; HT Universal Chemiluminescent PARP Assay kit (purchased from TREVIGEN); PBS (purchased from Wisent); Triton X-100 (purchased from Macklin); Envision multi-marker analyzer (PerkinElmer).
(I) Preparation of Reagents:
• 1. Washing solution: Triton X-100 was added to 1-fold PBS, and the final concentration of Triton X-100 was 0.1%. • 2. 1-fold PARP buffer: the 20-fold PARP buffer in the kit was subjected to 20-fold dilution with water to prepare a 1-fold PARP buffer. This buffer was used to prepare the compound, enzyme solution and substrate solution. • 3. 1-fold Strep-Diluent solution: the 10-fold Strep-diluent in the kit was subjected to 10-fold dilution with water to prepare a 1-fold Strep-diluent solution.
(II) Preparation of Test Compounds:
Test compounds were serially 5-fold diluted to the 8th concentration with a multichannel pipette, i.e. from 200 μM to 2.56 nM, with the DMSO concentration being 100%. 2 μL of each of the inhibitors at various concentration gradients was added to a compound intermediate plate, and 38 μL of the 1-fold PARP buffer was then added; the two were mixed well for use, and the DMSO concentration was 5%.
(III) Experimental Method:
• a) The 1-fold PARP buffer was added to a test plate at 50 μL per well and incubated at 25° C. for 30 min. • b) After the incubation was completed, the liquid in the test plate was discarded, and each of the compounds at various concentration gradients was pipetted from the compound intermediate plate and added into the test plate at 10 μL per well. A duplicate-well experiment was performed. • c) The test plate was added with the enzyme solution (0.5 IU) at 15 μL per well. The compound and enzyme were incubated together at 25° C. for 10 min. • d) After the incubation was completed, 25 μL of the 1-fold PARP Cocktail (comprising 2.5 μL of 10-fold PARP Cocktail, 2.5 μL of 10-fold Activated DNA and 20 μL of 1-fold PARP buffer) was added to each well of the test plate. The test plate was incubated at 25° C. for 1 h. The final concentration of the compound was 2 μM to 0.0256 nM, and the DMSO concentration was […]. • e) After the incubation was completed, the test plate was washed twice with 200 μL of washing solution per well and then washed twice with 200 μL of PBS per well. • f) Strep-HRP in the kit was subjected to 500-fold dilution with the 1-fold Strep-Diluent solution, added to the test plate at 50 μL per well, and then incubated at 25° C. for 1 h. • g) After the incubation was completed, the test plate was washed twice with 200 μL of washing solution per well and then washed twice with 200 μL of PBS per well.
PeroxyGlow A and B in the kit were mixed at ratio of 1:1, and the mixed solution was added to the test plate at 100 μL per well. Chemiluminescence was immediately read using a PerkinElmer Envision multi-marker analyzer with an integration time of 0.5 s.
Data analysis: the original data was converted to inhibition using the equation (sample−Min)/(Max−Min)×[…], and the IC50 value was then curve filled using four parameters (obtained from the “log(inhibitor) vs. response-variable slope” model in GraphPad Prism).

[3] = test system: BRCA-wild type MDA-MB-231 cells; assay: Anti-proliferation experiment on MDA-MB-231 CTG cells; format: cell-based; details: Homo sapiens, MDA-MB-231, 72 h; 3 days incubation, CellTiter-Glo
Experimental: Experimental Example 3: Anti-Proliferation Experiment on MDA-MB-231 CTG Cells
Experimental materials: test compounds; R DMEM medium; fetal bovine serum; penicillin/streptomycin antibiotic; MDA-MB-231 cell line; Envision multi-label analyzer.
MDA-MB-231 cells were seeded in a white 96-well plate by adding 80 μL of cell suspension (containing 5000 MDA-MB-231 cells) to each well. The cell plate was incubated in a CO2 incubator overnight.
as §1, with “Eight concentration points were set for each compound, test compounds” for “Test compounds”, “serially 3-fold” for “serially 5-fold”, “to 920” for “to 26”, “for 3” for “for 7”
as §2
Data analysis: the original data was converted to inhibition using the equation (sample−Min)/(Max−Min)×100%, and the IC50 value was then curve fitted using four parameters (obtained from the “log(inhibitor) vs. response-variable slope” model in GraphPad Prism). Table 1 provides the inhibitory activity of the compounds disclosed herein against MDA-MB-231 cell proliferation.

[4] = Single-dose pharmacokinetic study in mice; format: in vivo; details: male C57BL/6 mice, IV: 1 mg/kg PO: 5 mg/kg
Source text: Experimental Example 8: Single-Dose Pharmacokinetic Study in Mice
Experimental objective: to evaluate the pharmacokinetic behavior by using male C57BL/6 mice as test animals and determining the drug concentrations of the compounds in the plasma, liver and cerebrospinal fluid after single-dose administration.
Experimental method: healthy adult male C57BL/6 mice were selected for intragastric administration. A candidate compound was mixed with an appropriate amount of 10% DMSO/90% (20% hydroxypropyl-β-cyclodextrin), vortexed and sonicated to prepare a 0.5 mg/mL clear solution for later use. After the mice were administered intravenously at 1 mg/kg and orally at 5 mg/kg, whole blood was collected at certain time points, and plasma was separated, and liver and cerebrospinal fluid were collected. After pretreatment of the samples, the drug concentration was measured by LC-MS/MS, and pharmacokinetic parameters were calculated using Phoenix WinNonlin software.

[5] = Homo sapiens, MDA-MB-436, 168 h

T1 sequence (P09874 whole entry): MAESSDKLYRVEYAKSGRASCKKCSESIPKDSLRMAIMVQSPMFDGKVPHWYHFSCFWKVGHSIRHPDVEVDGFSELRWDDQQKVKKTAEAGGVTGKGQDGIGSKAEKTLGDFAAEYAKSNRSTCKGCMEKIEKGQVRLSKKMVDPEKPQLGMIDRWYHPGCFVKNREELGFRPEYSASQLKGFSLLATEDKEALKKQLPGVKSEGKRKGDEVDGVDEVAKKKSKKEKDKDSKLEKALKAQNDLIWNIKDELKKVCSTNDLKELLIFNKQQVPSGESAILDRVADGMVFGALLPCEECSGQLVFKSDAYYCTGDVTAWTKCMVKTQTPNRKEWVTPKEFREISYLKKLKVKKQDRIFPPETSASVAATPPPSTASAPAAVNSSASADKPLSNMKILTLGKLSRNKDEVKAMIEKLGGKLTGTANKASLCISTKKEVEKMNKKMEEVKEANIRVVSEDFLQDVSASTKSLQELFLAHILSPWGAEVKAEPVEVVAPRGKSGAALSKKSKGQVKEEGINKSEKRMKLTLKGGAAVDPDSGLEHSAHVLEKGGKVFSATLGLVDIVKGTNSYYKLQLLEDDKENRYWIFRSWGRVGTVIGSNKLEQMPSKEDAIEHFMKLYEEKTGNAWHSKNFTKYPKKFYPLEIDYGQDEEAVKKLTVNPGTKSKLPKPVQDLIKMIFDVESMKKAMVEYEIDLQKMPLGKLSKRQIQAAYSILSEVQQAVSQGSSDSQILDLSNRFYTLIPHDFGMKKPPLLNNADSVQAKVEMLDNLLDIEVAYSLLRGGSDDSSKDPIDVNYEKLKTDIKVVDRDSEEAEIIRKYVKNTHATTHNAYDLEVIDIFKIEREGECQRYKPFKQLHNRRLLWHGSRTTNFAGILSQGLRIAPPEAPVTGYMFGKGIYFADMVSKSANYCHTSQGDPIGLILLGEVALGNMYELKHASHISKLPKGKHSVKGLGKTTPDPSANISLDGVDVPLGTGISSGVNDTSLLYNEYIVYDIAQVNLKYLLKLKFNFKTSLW

SMILES | IC50 [1, 5] | IC50 [2] | IC50 [1] | further results
O=C1NOCc2c(-c3ccc(C4CCCNC4)cc3F)[nH]c3cc(F)cc1c23 (racemic) [Example 10] | 27 nM |  |  | 
O=C1NOCc2c(-c3ccc(C4CCCN4)cc3F)[nH]c3cc(F)cc1c23 (single isomer, unassigned) [Example 22_A] |  | 4.9 nM | 125 nM | 
O=C1NOCc2c(-c3ccc(C4CCCN4)cc3F)[nH]c3cc(F)cc1c23 (single isomer, unassigned) [Example 22_B] |  | 4.2 nM | 61.6 nM | IC50 [3]: > 10000 nM
O=C1NOCc2c(-c3ccc(C4CCCN4)cc3)[nH]c3cc(F)cc1c23 (single isomer, unassigned) [Example 24_B] |  | 2.5 nM | 4.4 nM | 
CC1(c2ccc(-c3[nH]c4cc(F)cc5c4c3CONC5=O)cc2F)CCCN1 (single isomer, unassigned) [Example 26_B] |  | 3.6 nM | 29.3 nM | 
O=C1NOCc2c(-c3ccc(C4CCCN4)c(F)c3)[nH]c3cc(F)cc1c23 (single isomer, unassigned) [Example 28_A] | 73 nM | 2.9 nM |  | 
O=C1NOCc2c(-c3ccc(C4CCCN4)c(F)c3)[nH]c3cc(F)cc1c23 (single isomer, unassigned) [Example 28_B] |  | 3.4 nM | 50 nM | 
[2H]C1(c2ccc(-c3[nH]c4cccc5c4c3CONC5=O)cc2)CCCN1 (centres unmarked) [Example 8_A] | 20.8 nM | 2.7 nM |  | 
[2H]C1(c2ccc(-c3[nH]c4cccc5c4c3CONC5=O)cc2F)CCCN1 (centres unmarked) [Example 15_B] | 89.6 nM | 7.1 nM |  | 
O=C1NOCc2c(-c3ccc(C4CCCN4)nc3)[nH]c3cccc1c23 (centres unmarked) [Example 16_B] | 44.6 nM | 2.8 nM |  | 
O=C1NOCc2c(-c3ccc(C4=CNCC4)c(F)c3)[nH]c3cccc1c23 [Example 18] | 134 nM |  |  | 
O=C1NOCc2c(-c3ccc(C4(F)CCCNC4)c(F)c3)[nH]c3cccc1c23 (centres unmarked) [Example 19_B] | 24 nM | 3.5 nM |  | 
O=C1NOCc2c(-c3ccc(C4CCCN4CCO)c(F)c3)[nH]c3cccc1c23 (centres unmarked) [Example 20_B] | 61.6 nM | 3.8 nM |  | 
[2H]C1([2H])ONC(=O)c2cccc3[nH]c(-c4ccc(C5CCCN5)c(F)c4)c1c23 (centres unmarked) [Example 21_B] | 69.8 nM | 5.6 nM |  | 
[2H]C1([2H])ONC(=O)c2cccc3[nH]c(-c4ccc(C5(C)CCCN5)c(F)c4)c1c23 (centres unmarked) [Example 23_A] | 30.9 nM | 3.7 nM |  | 
CC1(c2ccc(-c3[nH]c4cc(F)cc5c4c3CONC5=O)cc2)CCCN1 (centres unmarked) [Example 25_B] |  | 2.8 nM | 20.7 nM | 
CNCc1ccc(-c2[nH]c3cc(F)cc4c3c2CCNC4=O)cc1 [Rucaparib, reference compound] |  |  |  | Maximum concentration [4]: 24.8 nM; bioavailability ([4]; mouse, plasma): 14.6%; clearance ([4]; mouse, plasma): 99.9 mL/min/kg; Vd ([4]; mouse, plasma, read-out: Apparent volume of distribution): 13.1 L/kg
